ChEMBL document CHEMBL3046079, “Synthesis, herbicidal activity, and mode of action of IR 5790” (J Agric Food Chem, 2001)
The source made the active and inactive calls. The rule behind the calls is not given here.

Columns and labels:
Echinochloa crus-galli [1] = test: Post-emergence herbicidal activity against Echinochloa crus-galli (barnyard grass) assessed as injury at 150 g/ha applied at 15 days post-sowing measured after 15 days relative to control; type: functional
Chenopodium album [2] = test: Post-emergence herbicidal activity against Chenopodium album assessed as injury at 15 g/ha applied at 15 days post-sowing measured after 15 days relative to control; type: functional
Glycine max [3] = test: Phytotoxicity against Glycine max (soybean) assessed as injury at 150 g/ha applied as pre-emergent treatment at 24 hr post-sowing measured after 28 days relative to control; type: organism-based; settings: in vivo, other, 672 h
Solanum nigrum [4] = test: Post-emergence herbicidal activity against Solanum nigrum (black nightshade) assessed as injury at 150 g/ha applied at 15 days post-sowing measured after 15 days relative to control; type: functional
Veronica persica [5] = test: Pre-emergence herbicidal activity against Veronica persica assessed as injury at 50 g/ha applied at 24 hr post-sowing measured after 28 days relative to control; type: functional
Brassica napus = test: Phytotoxicity against Brassica napus (oilseed rape) assessed as injury at 150 g/ha applied as pre-emergent treatment at 24 hr post-sowing measured after 28 days relative to control; type: organism-based; settings: in vivo, other, 672 h
Glycine max [6] = test: Phytotoxicity against Glycine max (soybean) assessed as injury at 15 g/ha applied as post-emergent treatment at 15 days post-sowing measured after 15 days relative to control; type: organism-based; settings: in vivo, other, 360 h
Sida spinosa [7] = test: Pre-emergence herbicidal activity against Sida spinosa assessed as injury at 50 g/ha applied at 24 hr post-sowing measured after 28 days relative to control; type: functional
Echinochloa crus-galli [8] = test: Pre-emergence herbicidal activity against Echinochloa crus-galli (barnyard grass) assessed as injury at 150 g/ha applied at 24 hr post-sowing measured after 28 days relative to control; type: functional
Chenopodium album [9] = test: Post-emergence herbicidal activity against Chenopodium album assessed as injury at 150 g/ha applied at 15 days post-sowing measured after 15 days relative to control; type: functional
Portulaca oleracea [10] = test: Pre-emergence herbicidal activity against Portulaca oleracea assessed as injury at 150 g/ha applied at 24 hr post-sowing measured after 28 days relative to control; type: functional
Sorghum bicolor [11] = test: Pre-emergence herbicidal activity against Sorghum bicolor assessed as injury at 150 g/ha applied at 24 hr post-sowing measured after 28 days relative to control; type: functional
Calystegia sepium = test: Post-emergence herbicidal activity against Calystegia sepium assessed as injury at 150 g/ha applied at 15 days post-sowing measured after 15 days relative to control; type: functional
Matricaria chamomilla = test: Pre-emergence herbicidal activity against Matricaria chamomilla assessed as injury at 50 g/ha applied at 24 hr post-sowing measured after 28 days relative to control; type: functional
Chenopodium album [12] = test: Post-emergence herbicidal activity against Chenopodium album assessed as injury at 5 g/ha applied at 15 days post-sowing measured after 15 days relative to control; type: functional
Portulaca oleracea [13] = test: Post-emergence herbicidal activity against Portulaca oleracea assessed as injury at 50 g/ha applied at 15 days post-sowing measured after 15 days relative to control; type: functional
Capsella bursa-pastoris = test: Post-emergence herbicidal activity against Capsella bursa-pastoris assessed as injury at 150 g/ha applied at 15 days post-sowing measured after 15 days relative to control; type: functional
Veronica persica [14] = test: Post-emergence herbicidal activity against Veronica persica assessed as injury at 50 g/ha applied at 15 days post-sowing measured after 15 days relative to control; type: functional
Xanthium strumarium [15] = test: Pre-emergence herbicidal activity against Xanthium strumarium (cocklebur) assessed as injury at 50 g/ha applied at 24 hr post-sowing measured after 28 days relative to control; type: functional
Phalaris arundinacea = test: Pre-emergence herbicidal activity against Phalaris arundinacea assessed as injury at 50 g/ha applied at 24 hr post-sowing measured after 28 days relative to control; type: functional
Geranium dissectum = test: Pre-emergence herbicidal activity against Geranium dissectum assessed as injury at 150 g/ha applied at 24 hr post-sowing measured after 28 days relative to control; type: functional
Veronica persica [16] = test: Pre-emergence herbicidal activity against Veronica persica assessed as injury at 150 g/ha applied at 24 hr post-sowing measured after 28 days relative to control; type: functional
Amaranthus retroflexus = test: Pre-emergence herbicidal activity against Amaranthus retroflexus assessed as injury at 50 g/ha applied at 24 hr post-sowing measured after 28 days relative to control; type: functional
Abutilon theophrasti = test: Post-emergence herbicidal activity against Abutilon theophrasti (velvetleaf) assessed as injury at 15 g/ha applied at 15 days post-sowing measured after 15 days relative to control; type: functional
Sorghum bicolor [17] = test: Post-emergence herbicidal activity against Sorghum bicolor assessed as injury at 150 g/ha applied at 15 days post-sowing measured after 15 days relative to control; type: functional
Chenopodium album [18] = test: Post-emergence herbicidal activity against Chenopodium album assessed as injury at 50 g/ha applied at 15 days post-sowing measured after 15 days relative to control; type: functional
Galium aparine = test: Pre-emergence herbicidal activity against Galium aparine assessed as injury at 50 g/ha applied at 24 hr post-sowing measured after 28 days relative to control; type: functional
Avena fatua = test: Pre-emergence herbicidal activity against Avena fatua assessed as injury at 50 g/ha applied at 24 hr post-sowing measured after 28 days relative to control; type: functional
Sida spinosa [19] = test: Pre-emergence herbicidal activity against Sida spinosa assessed as injury at 150 g/ha applied at 24 hr post-sowing measured after 28 days relative to control; type: functional
Xanthium strumarium [20] = test: Post-emergence herbicidal activity against Xanthium strumarium (cocklebur) assessed as injury at 50 g/ha applied at 15 days post-sowing measured after 15 days relative to control; type: functional
Solanum nigrum [21] = test: Pre-emergence herbicidal activity against Solanum nigrum (black nightshade) assessed as injury at 150 g/ha applied at 24 hr post-sowing measured after 28 days relative to control; type: functional
Stellaria media = test: Post-emergence herbicidal activity against Stellaria media assessed as injury at 150 g/ha applied at 15 days post-sowing measured after 15 days relative to control; type: functional
[22] = molecular target: T1, Putative protoporphyrinogen IX oxidase (Cucumis sativus) (UniProt C6L817); test: Inhibition of protoporphyrin oxidase in Cucumis sativus (cucumber) cotyledon disc assessed as light-dependent membrane damage at 1 uM incubated for 20 hr in dark followed by 8 hr in presence of light measured as electrolyte leakage relative to control
T1 sequence (whole entry): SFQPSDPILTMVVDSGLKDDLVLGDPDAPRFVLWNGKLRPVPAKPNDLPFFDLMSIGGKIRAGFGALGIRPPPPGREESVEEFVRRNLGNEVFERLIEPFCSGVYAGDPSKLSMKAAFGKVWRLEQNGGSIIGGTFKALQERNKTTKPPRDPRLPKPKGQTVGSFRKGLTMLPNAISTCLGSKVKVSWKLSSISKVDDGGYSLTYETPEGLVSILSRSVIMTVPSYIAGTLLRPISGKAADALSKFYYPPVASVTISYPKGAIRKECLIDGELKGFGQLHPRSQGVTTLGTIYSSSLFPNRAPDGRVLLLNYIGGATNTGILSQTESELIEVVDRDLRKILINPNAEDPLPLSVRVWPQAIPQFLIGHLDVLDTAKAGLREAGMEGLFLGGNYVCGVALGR

Compound: C#CCOc1cc(-n2nc(C(C)(C)C)sc2=O)c(Cl)cc1Cl
- Activity (Echinochloa crus-galli [1]): 10%
- Activity (Chenopodium album [2]): 70%
- Activity (Glycine max [3]): 0%
- Activity (Solanum nigrum [4]): 90%
- Activity (Veronica persica [5]): 30%
- Activity (Brassica napus): 0%
- Activity (Glycine max [6]): 0%
- Activity (Sida spinosa [7]): 0%
- Activity (Echinochloa crus-galli [8]): 70%
- Activity (Chenopodium album [9]): 90%
- Activity (Portulaca oleracea [10]): 90%
- Activity (Sorghum bicolor [11]): 50%
- Activity (Calystegia sepium): 90%
- Activity (Matricaria chamomilla): 0%
- Activity (Chenopodium album [12]): 10%
- Activity (Portulaca oleracea [13]): 90%
- Activity (Capsella bursa-pastoris): 50%
- Activity (Veronica persica [14]): 0%
- Activity (Xanthium strumarium [15]): 0%
- Activity (Phalaris arundinacea): 0%
- Activity (Geranium dissectum): 0%
- Activity (Veronica persica [16]): 50%
- Activity (Amaranthus retroflexus): 50%
- Activity (Abutilon theophrasti): 30%
- Activity (Sorghum bicolor [17]): 10%
- Activity (Chenopodium album [18]): 90%
- Activity (Galium aparine): 0%
- Activity (Avena fatua): 0%
- Activity (Sida spinosa [19]): 0%
- Activity (Xanthium strumarium [20]): 10%
- Activity (Solanum nigrum [21]): 70%
- Activity (Stellaria media): 0%
- inhibition [22]: inactive
